According to patent US12268671B2, “IL-8 inhibitors for use in the treatment of chemotherapy-induced peripheral neuropathy” (DOMPÉ FARMACEUTICI S.P.A., priority 2016, dated 2025):

What was measured:
[1] = test system: Male Wistar rats; assay: Paclitaxel-induced mechanical allodynia (Dynamic Plantar Aesthesiometer); type: in vivo, rat; details: paclitaxel model
Protocol: (§1) Male Wistar rats (200-250 g, Harlan Italy) were housed in a room with controlled temperature (22±1° C.), humidity (60±10%) and light (12 h per day); food and water were available ad libitum.
(§2) The rats received: • 1—four once a day intraperitoneal (i.p.) injections of either paclitaxel (Tocris, Italy) (2 mg/kg/day i.p.; cumulative dose of 8 mg/kg i.p.) or vehicle (saline, 1 ml/kg/day i.p.), administered on alternate days (days 0, 2, 4, and 6), as described in Polomano et al, Pain 2001, 94:293-294. Behavioral testing was performed prior to paclitaxel/vehicle administration (day-1), and again on days 5-7-10-14 following paclitaxel/vehicle injection; • or • 2—oxaliplatin (2.4 mg/kg) dissolved in 5% glucose solution which was administered intraperitoneally (i.p.) at a volume of 0.5 mL/rat, for 5 consecutive days every week for 3 weeks, as described in Cavaletti et al., Eur. J. Cancer, 2001 37, 2457-63. Behavioral testing was performed before oxaliplatin/vehicle administration (day-1), and at again on day 3-5-7-10-14-21 day following oxaliplatin/vehicle injection.
(§3) DF2726A (30 mg/kg) (5 mg/1 ml, 0.5 ml/os/rat) was dissolved in 10% SOLUTOL-HS15 and N-methylpyrrolidone (NMP) (SOLUTOL:NMP 2:1 w/v) and 90% PBS 1×, and was administered once a day from day −3 up to day 11 after paclitaxel administration. Anti-allodynic effects were assessed on day 5, 7, 10 and 14 after paclitaxel administration. Control animals received vehicle (10% SOLUTOL-NMP 2:1 w/v and PBS, 5 mg/1 ml; 0.5 m1/os/rat).
(§4) DF1681B was administered by continuous subcutaneous infusion using the ALZET osmotic pumps Model 2ML2 (Charles River). In details, DF1681B (9.37 g) was dissolved in sterile saline (25 ml) at a concentration of 375 mg/ml and vortexed for 10 min. Osmotic pumps were implanted under anesthesia (100 mg/kg ketamine and 10 mg/kg xylazine i.p.) through a surgical incision between the scapulae. Pumps were implanted 3 days before first paclitaxel injection (day-3). Drug delivery was carried out continuously until day +11. Control animals received vehicle (sterile saline).
To assess the development of mechanical allodynia, sensitivity to tactile stimulation was measured using the Dynamic Plantar Aesthesiometer (DPA, Ugo Basile, Italy). Animals were placed in a chamber with a mesh metal floor covered by a plastic dome that enabled the animal to walk freely, but not to jump. The mechanical stimulus were then delivered in the mid-plantar skin of the hind paw. The cut-off was fixed at 50 g. […]
(§5) All data were presented as the mean±SEM. The significance of differences between groups was determined by two-way analyses of variance (ANOVA) followed by Bonferroni post hoc tests for multiple comparisons. […]

[2] = test system: Male Wistar rats; assay: Paclitaxel-induced cold allodynia (acetone test); type: in vivo, rat; details: paclitaxel model
Protocol: as §1, §2, §3, §4
Cold sensitivity was measured as the number of foot withdrawal responses after application of acetone to the dorsal surface of the paw (2). A drop of acetone was applied to the dorsal surface of paws with a syringe connected to a thin polyethylene tube while the rats was standing on a metal mesh. […] Cold responses were measured on both paws before (day −1) and, then on 5, 7, 10 and 14 days after paclitaxel/vehicle administration or on days 0, 5, 7, 10, 14 and 21 after oxalipaltin/vehicle administration.
as §5

[3] = test system: Male Wistar rats; assay: Oxaliplatin-induced mechanical allodynia (Dynamic Plantar Aesthesiometer); type: in vivo, rat; details: oxaliplatin model, days 14 and 21
Protocol: as §1
as §2, with “Behavioral testing was performed before oxaliplatin/vehicle administration (day-1), and at again on day 3-5-7-10-14-21 day following oxaliplatin/vehicle injection.” left out
To assess the development of mechanical allodynia, sensitivity to tactile stimulation was measured using the Dynamic Plantar Aesthesiometer (DPA, Ugo Basile, Italy). […]
as §5

[4] = test system: Male Wistar rats; assay: Oxaliplatin-induced cold allodynia (acetone test); type: in vivo, rat; details: oxaliplatin model
Protocol: as §1, §2
DF2726A (30 mg/kg/os) was dissolved in PBS and it was administrated, for 24 consecutive days starting 3 days before oxaliplatin administration and continuing for other 21 days after the first administration of oxaliplatin. During this period the compound was given 2 h after oxaliplatin treatment. Since DF2726A is a sodium salt it was dissolved at the concentration of 16 mg/ml, to reach the active drug dose of 30 mg/kg.
DF1681B was administered by continuous subcutaneous infusion using the ALZET osmotic pumps Model 2ML2 (Charles River). In order to obtain a rate of infusion of 8 mg/hr/kg as described by Cavalieri et al Int J Immunopathol Pharmacol, 2005, 18:475-86, DF1681B (9.37 g) was dissolved in sterile saline (25 ml) at a concentration of 375 mg/ml and vortexed for 10 min. Osmotic pumps were implanted under anesthesia (100 mg/kg ketamine and 10 mg/kg xylazine i.p.). Pumps were prepared according to Alzet instructions sheet. Briefly, pumps were filled with 2 ml of DF1681B solution or vehicle using sterile syringe. Finally, pumps were kept in water bath overnight in stove at 37° C. […]
Cold sensitivity was measured as the number of foot withdrawal responses after application of acetone to the dorsal surface of the paw (2). […] Cold responses were measured on both paws before (day −1) and, then on 5, 7, 10 and 14 days after paclitaxel/vehicle administration or on days 0, 5, 7, 10, 14 and 21 after oxalipaltin/vehicle administration.
as §5

[5] = test system: F-11 cell line; assay: Paclitaxel-induced cytoskeleton modifications, immunofluorescence in differentiated F11 neurons; type: cell-based, mouse/rat; details: 24 hours
Protocol: In this study, the effects of paclitaxel, administered alone or in combination with reparixin (DF1681Y; R-(−)-2-(4-isobutylphenyl)propionyl methanesulfonamide) dissolved in aqueous solution of lysine to form the in situ salt, on the cytoskeleton components and organization was performed. As experimental model, a F-11 cell line, a fusion product of mouse neuroblastoma cell line N18TG-2 cells with embryonic rat dorsal root ganglia sensory neurons, was used. These cells were selected because of the presence of neuronal markers and properties that are unique to the parental rat sensory neurons.
F11 (ECACC, Salisbury, UK) cells were cultivated DMEM (Euroclone, MI, Italy) medium supplemented with 10% FBS, USA origin, (Sigma-Aldrich St. Louis, CO, USA), 1% penicillin/streptomycin (Euroclone) and 1% glutamine (Euroclone). After, cells were differentiated with mouse NGF (mNGF) dissolved in DMEM with 1% penicillin/streptomycin and 1% glutamine (FBS free) at the final concentration 50 ng/ml. Medium was replaced every 3 days until complete differentiation, occurred after 7 days. Neurons were not treated (controls) or treated for 24 hours with reparixin [10 μM final concentration], paclitaxel (Sigma-Aldrich) [10 nM final concentration] and the combination of the two molecules.
Cells were fixed in paraformaldehyde 4% in PBS for 20 min at RT and permeabilized in methanol for 5 min at −20° C. Cells were then blocked with PBS containing 4% BSA for 30 min and incubated with primary antibodies diluted in the blocking solution overnight at 4° C.: rabbit β-tubulin (Abcam, Cambridge, UK) 1:500; mouse α-tubulin (Abcam) 1:200 and mouse α-tubulin acetylated (Abcam) 1:1000. Cells were then rinsed in PBS several times before incubation with secondary antibodies, goat anti rabbit conjugated with Alexafluor 633 (1:2000), and goat anti mouse conjugated with Alexafluor 488 (1:2000), (Life Technologies, CA, USA) for 30 min at RT. After extensive washing coverslips were mounted with Vectashield mounting medium with DAPI (Vector Laboratories Burlingame, CA, USA) and then observed at confocal laser microscope.

[6] = DF1681B continuous subcutaneous infusion from day -3 to day +11, day 14
[7] = DF2726A 30 mg/kg os once a day from day -3 to day 11, day 14 (after end of treatment)
[8] = DF2726A 30 mg/kg os once a day from day -3 to day 11, days 5 (P<0.05), 7 (P<0.001), 10 (P<0.001)
[9] = reparixin 10 μM in combination with paclitaxel 10 nM

## CC(C)Cc1ccc([C@@H](C)C(=O)NS(C)(=O)=O)cc1 [DF1681B, R(−)-2-(4-isobutylphenyl)propionyl methansulfonamide]
[1]; DF1681B continuous subcutaneous infusion by osmotic pump from day -3 to day +11, days 5 (P<0.01), 7 (P<0.001), 10 (P<0.001)
  mechanical allodynia (paw withdrawal threshold) vs animals treated with vehicle: significant reduction of mechanical allodynia
[1]; [6]
  mechanical allodynia (paw withdrawal threshold) vs animals treated with vehicle: No additional antiallodynic effect
[2]; [6]
  cold allodynia (number of paw withdrawals) vs animals treated with vehicle: No additional antiallodynic effect
[2]; DF1681B continuous subcutaneous infusion from day -3 to day +11, days 5 (P<0.01), 7 (P<0.001), 10 (P<0.001)
  cold allodynia (number of paw withdrawals) vs animals treated with vehicle: significant reduction of cold allodynia
[3]; DF1681B continuous subcutaneous infusion 8 mg/hr/kg from day -3
  mechanical allodynia (paw withdrawal threshold): significant antiallodynic effect
[4]; DF1681B continuous subcutaneous infusion 8 mg/hr/kg from day -3, day 3
  cold allodynia (number of paw withdrawals): did not show antiallodynic effect
[4]; DF1681B continuous subcutaneous infusion 8 mg/hr/kg from day -3, days 5, 7, 10, 14, 21
  cold allodynia (number of paw withdrawals): significant reduction of cold allodynia

## CC(C)(C(=O)[O-])c1ccc(Nc2nc(C(F)(F)F)cs2)cc1.[Na+] [DF2726A, 2-methyl-2-(4-{[4-(trifluoromethyl)-1,3-thiazol-2-yl]amino}phenyl)propanoic acid sodium salt]
[1]; [7]
  mechanical allodynia (paw withdrawal threshold) vs animals treated with vehicle: No additional significant antiallodynic effect
[1]; [8]
  mechanical allodynia (paw withdrawal threshold) vs animals treated with vehicle: significant reduction of mechanical allodynia
[2]; [7]
  cold allodynia (number of paw withdrawals) vs animals treated with vehicle: No additional antiallodynic effect
[2]; [8]
  cold allodynia (number of paw withdrawals) vs animals treated with vehicle: significant reduction of cold allodynia
[3]; DF2726A 30 mg/kg/os for 24 consecutive days from day -3
  mechanical allodynia (paw withdrawal threshold): significant antiallodynic effect
[4]; DF2726A 30 mg/kg/os for 24 consecutive days from day -3, day 3
  cold allodynia (number of paw withdrawals): did not show antiallodynic effect
[4]; DF2726A 30 mg/kg/os for 24 consecutive days from day -3, days 5, 7, 10, 14, 21
  cold allodynia (number of paw withdrawals): significant reduction of cold allodynia

## CC(=O)O[C@H]1C(=O)[C@@]2(C)[C@H]([C@H](OC(=O)c3ccccc3)[C@]3(O)C[C@H](OC(=O)[C@H](O)[C@@H](NC(=O)c4ccccc4)c4ccccc4)C(C)=C1C3(C)C)[C@]1(OC(C)=O)CO[C@@H]1C[C@@H]2O [paclitaxel, reference compound]
[5]; paclitaxel 10 nM alone
  acetylated α-tubulin (marker of stable microtubules), immunofluorescence: increased acetylated α-tubulin
  fluorescence intensity of β-tubulin: decrease of the fluorescence intensity of β-tubulin
  neurite diameter: increase of neurite diameter

## CC(C)Cc1ccc([C@@H](C)C(=O)NS(C)(=O)=O)cc1 [reparixin, R-(−)-2-(4-isobutylphenyl)propionyl methanesulfonamide]
[5]; [9]
  acetylated α-tubulin (marker of stable microtubules), immunofluorescence: acetylated α-tubulin appears similar to the control
  increased neurite thickness induced by paclitaxel treatment: able to abolish
  α-tubulin and β-tubulin immunofluorescence (dimer formation): able to counteract the effect of paclitaxel alone on dimer formation
